# How the values were obtained:
# lambsquarters [1] = experiment: Test Example 4: herbicidal effect by soil treatment (Table 19, symbol O); type: in vivo, lambsquarters (Chenopodium album)
# In short: (§1)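 In this soil treatment, the formulated compound reached the seeds only through the soil: seeds were buried about 1.5 cm deep in sterilized diluvial soil, then the diluted emulsion was sprayed over the surface. After three weeks at 25° C. to 30° C. in a greenhouse, effects were graded on criteria from an earlier test.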
# wild oat [2] = experiment: Test Example 4: herbicidal effect by soil treatment (Table 19, symbol I); type: in vivo, wild oat (Avena fatua)
# In short: as §1
# windgrass [3] = experiment: Test Example 4: herbicidal effect by soil treatment (Table 19, symbol L); type: in vivo, windgrass (Apera spica-venti)
# In short: as §1
# Italian ryegrass [4] = experiment: Test Example 4: herbicidal effect by soil treatment (Table 19, symbol K); type: in vivo, Italian ryegrass (Lolium multiflorum)
# In short: as §1
# rice flat sedge = experiment: Test Example 3: herbicidal effect by foliage application, Wagner pot (Table 18, symbol E); type: in vivo, rice flat sedge (Cyperus iria)
# In short: (§2)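 Plants were sown in alluvial soil held under 0.1–0.5 cm standing water and grown 14 days in a greenhouse at 25–30 °C. An emulsifiable formulation, water-diluted to the set dose, was then sprayed onto the foliage, and effects were scored three weeks later using previously defined criteria.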
# green foxtail [5] = experiment: Test Example 5: herbicidal effect by foliage application, plastic box (Table 20, symbol G); type: in vivo, green foxtail (Setaria viridis); settings: foliage application, evaluated three weeks after application
# In short: (§3)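 Plants were sown into sterilized diluvial soil under about 1.5 cm cover and kept in a greenhouse at 25° C. to 30° C. Fourteen days on, foliage received an even spray of the diluted emulsion. Herbicidal or crop effect was judged three weeks afterwards.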
# chickweed [6] = experiment: Test Example 4: herbicidal effect by soil treatment (Table 19, symbol P); type: in vivo, common chickweed (Stellaria media)
# In short: as §1
# wild oat [7] = experiment: Test Example 5: herbicidal effect by foliage application, plastic box (Table 20, symbol I); type: in vivo, wild oat (Avena fatua); settings: foliage application, evaluated three weeks after application
# In short: as §3
# barnyard grass [8] = experiment: Test Example 4: herbicidal effect by soil treatment (Table 19, symbol H); type: in vivo, barnyard grass (Echinochloa crus-galli)
# In short: as §1
# southern crabgrass [9] = experiment: Test Example 4: herbicidal effect by soil treatment (Table 19, symbol F); type: in vivo, southern crabgrass (Digitaria ciliaris)
# In short: as §1
# barnyard grass [10] = experiment: Test Example 5: herbicidal effect by foliage application, plastic box (Table 20, symbol H); type: in vivo, barnyard grass (Echinochloa crus-galli); settings: foliage application, evaluated three weeks after application
# In short: as §3
# persian speedwell [11] = experiment: Test Example 5: herbicidal effect by foliage application, plastic box (Table 20, symbol R); type: in vivo, Persian speedwell (Veronica persica); settings: foliage application, evaluated three weeks after application
# In short: as §3
# Italian ryegrass [12] = experiment: Test Example 5: herbicidal effect by foliage application, plastic box (Table 20, symbol K); type: in vivo, Italian ryegrass (Lolium multiflorum); settings: foliage application, evaluated three weeks after application
# In short: as §3
# lambsquarters [13] = experiment: Test Example 5: herbicidal effect by foliage application, plastic box (Table 20, symbol O); type: in vivo, lambsquarters (Chenopodium album); settings: foliage application, evaluated three weeks after application
# In short: as §3
# windgrass [14] = experiment: Test Example 5: herbicidal effect by foliage application, plastic box (Table 20, symbol L); type: in vivo, windgrass (Apera spica-venti); settings: foliage application, 176 g/ha, evaluated three weeks after application
# In short: as §3
# velvetleaf [15] = experiment: Test Example 4: herbicidal effect by soil treatment (Table 19, symbol M); type: in vivo, velvetleaf (Abutilon theophrasti)
# In short: as §1
# velvetleaf [16] = experiment: Test Example 5: herbicidal effect by foliage application, plastic box (Table 20, symbol M); type: in vivo, velvetleaf (Abutilon theophrasti); settings: foliage application, evaluated three weeks after application
# In short: as §3
# Japanese bulrush = experiment: Test Example 1: herbicidal activity, application before weed generation under submerged conditions (Table 16, symbol B); type: in vivo, Japanese bulrush (Schoenoplectus juncoides)
# In short: (§4)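 Submerged Wagner pots (alluvial soil, 4 cm water) sown with weed seeds and planted with 2.5-leaf rice seedlings; emulsifiable concentrate diluted in water applied to water surface on sowing day. Held in greenhouse at 25-30 °C; injury scored 0-5 by herbicidal rate after three weeks.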
# barnyard grass [17] = experiment: Test Example 3: herbicidal effect by foliage application, Wagner pot (Table 18, symbol H); type: in vivo, barnyard grass (Echinochloa crus-galli)
# In short: as §2
# persian speedwell [18] = experiment: Test Example 4: herbicidal effect by soil treatment (Table 19, symbol R); type: in vivo, Persian speedwell (Veronica persica)
# In short: as §1
# Chinese sprangletop = experiment: Test Example 3: herbicidal effect by foliage application, Wagner pot (Table 18, symbol D); type: in vivo, chinese sprangletop (Leptochloa chinensis)
# In short: as §2
# late watergrass = experiment: Test Example 1: herbicidal activity, application before weed generation under submerged conditions (Table 16, symbol A); type: in vivo, late watergrass (Echinochloa oryzicola)
# In short: as §4
# chickweed [19] = experiment: Test Example 5: herbicidal effect by foliage application, plastic box (Table 20, symbol P); type: in vivo, common chickweed (Stellaria media); settings: foliage application, evaluated three weeks after application
# In short: as §3
# green foxtail [20] = experiment: Test Example 4: herbicidal effect by soil treatment (Table 19, symbol G); type: in vivo, green foxtail (Setaria viridis)
# In short: as §1
# oval-leafed pondweed = experiment: Test Example 1: herbicidal activity, application before weed generation under submerged conditions (Table 16, symbol C); type: in vivo, oval-leafed pondweed (Monochoria vaginalis)
# In short: as §4
# southern crabgrass [21] = experiment: Test Example 5: herbicidal effect by foliage application, plastic box (Table 20, symbol F); type: in vivo, southern crabgrass (Digitaria ciliaris); settings: foliage application, evaluated three weeks after application
# In short: as §3
# blackgrass [22] = experiment: Test Example 4: herbicidal effect by soil treatment (Table 19, symbol J); type: in vivo, blackgrass (Alopecurus myosuroides)
# In short: as §1
# blackgrass [23] = experiment: Test Example 5: herbicidal effect by foliage application, plastic box (Table 20, symbol J); type: in vivo, blackgrass (Alopecurus myosuroides); settings: foliage application, evaluated three weeks after application
# In short: as §3
# redroot pigweed [24] = experiment: Test Example 5: herbicidal effect by foliage application, plastic box (Table 20, symbol N); type: in vivo, redroot pigweed (Amaranthus retroflexus); settings: foliage application, evaluated three weeks after application
# In short: as §3
# redroot pigweed [25] = experiment: Test Example 4: herbicidal effect by soil treatment (Table 19, symbol N); type: in vivo, redroot pigweed (Amaranthus retroflexus); settings: amount of applied herbicide 320 g/ha
# In short: as §1
# [26] = amount of applied herbicide 176 g/ha
# [27] = amount of applied herbicide 320 g/ha
compound,measurement,setting,value
COc1ccccc1-c1sc2ccc(C)cc2c1-c1c(O)c(C)nn(C)c1=O [2-138],"O: lambsquarters, herbicidal effect rating",lambsquarters [1]; [26],5 (Herbicidal rate of 90% or more (almost completely withered))
same,"I: wild oat, herbicidal effect rating",wild oat [2]; [26],0 (Herbicidal rate of 5% or less (almost no effect))
same,"L: windgrass, herbicidal effect rating",windgrass [3]; [26],0 (Herbicidal rate of 5% or less (almost no effect))
same,"K: Italian ryegrass, herbicidal effect rating",Italian ryegrass [4]; [26],0 (Herbicidal rate of 5% or less (almost no effect))
same,herbicidal effect on E: rice flat sedge,rice flat sedge; [26],4 (Herbicidal rate of 70% or more and less than 90%)
same,herbicidal effect on G: green foxtail,green foxtail [5]; 176 g/ha,4 (Herbicidal rate of 70% or more and less than 90%)
same,"P: chickweed, herbicidal effect rating",chickweed [6]; [26],0 (Herbicidal rate of 5% or less (almost no effect))
same,herbicidal effect on I: wild oat,wild oat [7]; 176 g/ha,0 (Herbicidal rate of 5% or less (almost no effect))
same,"H: barnyard grass, herbicidal effect rating",barnyard grass [8]; [26],3 (Herbicidal rate of 40% or more and less than 70%)
same,"F: southern crabgrass, herbicidal effect rating",southern crabgrass [9]; [26],0 (Herbicidal rate of 5% or less (almost no effect))
same,herbicidal effect on H: barnyard grass,barnyard grass [10]; 176 g/ha,4 (Herbicidal rate of 70% or more and less than 90%)
same,herbicidal effect on R: persian speedwell,persian speedwell [11]; 176 g/ha,5 (Herbicidal rate of 90% or more (almost completely withered))
same,herbicidal effect on K: Italian ryegrass,Italian ryegrass [12]; 176 g/ha,3 (Herbicidal rate of 40% or more and less than 70%)
same,herbicidal effect on O: lambsquarters,lambsquarters [13]; 176 g/ha,4 (Herbicidal rate of 70% or more and less than 90%)
same,herbicidal effect on L: windgrass,windgrass [14],4 (Herbicidal rate of 70% or more and less than 90%)
same,"M: velvetleaf, herbicidal effect rating",velvetleaf [15]; [26],0 (Herbicidal rate of 5% or less (almost no effect))
same,herbicidal effect on M: velvetleaf,velvetleaf [16]; 176 g/ha,5 (Herbicidal rate of 90% or more (almost completely withered))
same,Herbicidal effect on B: Japanese bulrush (grade 0-5),Japanese bulrush; 176 g/ha applied herbicide,0 (Herbicidal rate of 5% or less (almost no effect))
same,herbicidal effect on H: barnyard grass,barnyard grass [17]; [26],5 (Herbicidal rate of 90% or more (almost completely withered))
same,"R: persian speedwell, herbicidal effect rating",persian speedwell [18]; [26],0 (Herbicidal rate of 5% or less (almost no effect))
same,herbicidal effect on D: Chinese sprangletop,Chinese sprangletop; [26],1 (Herbicidal rate of 5% or more and less than 20%)
same,Herbicidal effect on A: late watergrass (grade 0-5),late watergrass; 176 g/ha applied herbicide,5 (Herbicidal rate of 90% or more (almost completely withered))
same,herbicidal effect on P: chickweed,chickweed [19]; 176 g/ha,5 (Herbicidal rate of 90% or more (almost completely withered))
same,"G: green foxtail, herbicidal effect rating",green foxtail [20]; [26],4 (Herbicidal rate of 70% or more and less than 90%)
same,Herbicidal effect on C: oval-leafed pondweed (grade 0-5),oval-leafed pondweed; 176 g/ha applied herbicide,0 (Herbicidal rate of 5% or less (almost no effect))
same,herbicidal effect on F: southern crabgrass,southern crabgrass [21]; 176 g/ha,3 (Herbicidal rate of 40% or more and less than 70%)
same,"J: blackgrass, herbicidal effect rating",blackgrass [22]; [26],3 (Herbicidal rate of 40% or more and less than 70%)
same,herbicidal effect on J: blackgrass,blackgrass [23]; 176 g/ha,3 (Herbicidal rate of 40% or more and less than 70%)
same,herbicidal effect on N: redroot pigweed,redroot pigweed [24]; 176 g/ha,0 (Herbicidal rate of 5% or less (almost no effect))
Cc1nn(C)c(=O)c(-c2c(-c3ccc(C(C)(C)C)cc3)sc3ccc(F)cc23)c1O [2-208],"O: lambsquarters, herbicidal effect rating",lambsquarters [1]; [27],2 (Herbicidal rate of 20% or more and less than 40%)
same,"I: wild oat, herbicidal effect rating",wild oat [2]; [27],0 (Herbicidal rate of 5% or less (almost no effect))
same,"L: windgrass, herbicidal effect rating",windgrass [3]; [27],0 (Herbicidal rate of 5% or less (almost no effect))
same,"K: Italian ryegrass, herbicidal effect rating",Italian ryegrass [4]; [27],0 (Herbicidal rate of 5% or less (almost no effect))
same,herbicidal effect on E: rice flat sedge,rice flat sedge; [27],5 (Herbicidal rate of 90% or more (almost completely withered))
same,herbicidal effect on G: green foxtail (criteria 0-5),green foxtail [5]; 320 g/ha,2 (Herbicidal rate of 20% or more and less than 40%)
same,"P: chickweed, herbicidal effect rating",chickweed [6]; [27],0 (Herbicidal rate of 5% or less (almost no effect))
same,herbicidal effect on I: wild oat (criteria 0-5),wild oat [7]; 320 g/ha,0 (Herbicidal rate of 5% or less (almost no effect))
same,"H: barnyard grass, herbicidal effect rating",barnyard grass [8]; [27],0 (Herbicidal rate of 5% or less (almost no effect))
same,"F: southern crabgrass, herbicidal effect rating",southern crabgrass [9]; [27],3 (Herbicidal rate of 40% or more and less than 70%)
same,"N: redroot pigweed, herbicidal effect rating",redroot pigweed [25],0 (Herbicidal rate of 5% or less (almost no effect))
same,herbicidal effect on H: barnyard grass (criteria 0-5),barnyard grass [10]; 320 g/ha,5 (Herbicidal rate of 90% or more (almost completely withered))
same,herbicidal effect on R: persian speedwell (criteria 0-5),persian speedwell [11]; 320 g/ha,5 (Herbicidal rate of 90% or more (almost completely withered))
same,herbicidal effect on K: Italian ryegrass (criteria 0-5),Italian ryegrass [12]; 320 g/ha,0 (Herbicidal rate of 5% or less (almost no effect))
same,herbicidal effect on O: lambsquarters (criteria 0-5),lambsquarters [13]; 320 g/ha,0 (Herbicidal rate of 5% or less (almost no effect))
same,"M: velvetleaf, herbicidal effect rating",velvetleaf [15]; [27],1 (Herbicidal rate of 5% or more and less than 20%)
same,herbicidal effect on M: velvetleaf (criteria 0-5),velvetleaf [16]; 320 g/ha,2 (Herbicidal rate of 20% or more and less than 40%)
same,Herbicidal effect on B: Japanese bulrush (grade 0-5),Japanese bulrush; 320 g/ha applied herbicide,2 (Herbicidal rate of 20% or more and less than 40%)
same,herbicidal effect on H: barnyard grass,barnyard grass [17]; [27],5 (Herbicidal rate of 90% or more (almost completely withered))
same,"R: persian speedwell, herbicidal effect rating",persian speedwell [18]; [27],0 (Herbicidal rate of 5% or less (almost no effect))
same,herbicidal effect on D: Chinese sprangletop,Chinese sprangletop; [27],5 (Herbicidal rate of 90% or more (almost completely withered))
same,Herbicidal effect on A: late watergrass (grade 0-5),late watergrass; 320 g/ha applied herbicide,0 (Herbicidal rate of 5% or less (almost no effect))
same,herbicidal effect on P: chickweed (criteria 0-5),chickweed [19]; 320 g/ha,5 (Herbicidal rate of 90% or more (almost completely withered))
same,"G: green foxtail, herbicidal effect rating",green foxtail [20]; [27],0 (Herbicidal rate of 5% or less (almost no effect))
same,Herbicidal effect on C: oval-leafed pondweed (grade 0-5),oval-leafed pondweed; 320 g/ha applied herbicide,0 (Herbicidal rate of 5% or less (almost no effect))
same,herbicidal effect on F: southern crabgrass (criteria 0-5),southern crabgrass [21]; 320 g/ha,3 (Herbicidal rate of 40% or more and less than 70%)
same,"J: blackgrass, herbicidal effect rating",blackgrass [22]; [27],0 (Herbicidal rate of 5% or less (almost no effect))
same,herbicidal effect on J: blackgrass (criteria 0-5),blackgrass [23]; 320 g/ha,0 (Herbicidal rate of 5% or less (almost no effect))
same,herbicidal effect on N: redroot pigweed (criteria 0-5),redroot pigweed [24]; 320 g/ha,3 (Herbicidal rate of 40% or more and less than 70%)

# Reference: patent publication US20230085307A1, “PYRIDAZINONE COMPOUND AND HERBICIDE” (NISSAN CHEMICAL CORPORATION, priority 2019, published 2023)
